Laboratory results from patent US7179921B2, “Indoline and tetrahydro-quinolines as prodrugs for tumour treatment” (School of Pharmacy, University of London, priority 2001, dated 2007).
Marks after values point to notes of the source that are not given here.

System: Chinese Hamster Ovary (CHO) cell
Assay: Cell culture based cytotoxicity measurement (MTT) with and without rat liver microsomal activation
Conditions: for IC50: Cricetulus griseus, CHO, cells incubated 24 hours, MTT, mean±sd, three experiments
Method: Test compound activation by CYP enzymes was carried out using NADPH supplemented rat liver microsomes. Incubation mixtures comprised microsomal protein (1 mg/ml), reduced-nicotinamide adenine dinucleotide phosphate (NADPH,10 mM) and phosphate buffer (pH7.4, 100 mM). Test compound (0.01–100 μM final concentration) in DMSO (20 μl ) was added to the microsomal incubation mixtures (0.5 ml) and incubated for 60 min at 37C. Control incubates contained test compound and microsomal incubation mixture terminated at 0 time. All incubations were terminated by addition of an equal volume of ice-cold acetonitrile and microfuged for 3 min. Aliquots of the supernatant were added to cells in culture.
Chinese Hamster Ovary (CHO) cell were grown in MEM supplemented with 10% dialysed FBS and G418 (400 μg/ml). All cells were seeded at an initial density of 1000 cells/well in 96-well-plates, incubation at 37° C. for 24 hours. Aliquots (0.1 ml) of the test compound/microsomal/acetonitrile supernatnant was then added to the CHO cells. Cells were then incubated for 24 hours at 37° C., 5% CO2. After this time period MTT (50 μl; 2 mg/ml stock solution) was added to each well and cells were incubated for a further 4 hours. During this time period MTT, a hydrogen acceptor tetrazolium salt, is reduced to formazan dye by mitochondrial dehydrogenase of viable cells. The media was aspirated from cells and DMSO (100 μl/well) added to solubilise the is coloured formazan dye. Absorbance of the formazan dye in the 96-well-plates was then determined at 550 nm. The effect of microsomal activation by the test compound on the arrest of CHO cell growth could be determined by comparing the IC50 (concentration that inhibited cell growth by 50%) with and without microsomal incubation.
Effect of compound 3.5 and its metabolism (activation) product on the survival of Chinese hamster ovary cells in culture. Cells were incubated for 24 hours with supernatants from reaction mixtures of compound 3.5 with NADPH fortified rat liver microsomes. […] Values are expressed as the mean±sd for three experiments. […]

COc1ccc2[nH]c(C(=O)N3CC(CCl)c4ccccc43)cc2c1 (stereo not drawn) [compound 3.5, 3-(Chloromethyl)-1--[(5-methoxyindol-2-yl)carbonyl]indoline]
AF = activity factor, ratio of IC50 cytotoxicity values obtained for ± compound activation (CHO cells, IC50 −activation / IC50 +activation): 42.4* | IC50 (control incubate terminated at 0 time (no microsomal activation)): 5510 ± 230 nM | IC50 (supernatant after 60 min incubation with NADPH supplemented rat liver microsomes): 130 ± 30 nM
